Measurements: US7390806B2, “Antibiotics containing borinic acid complexes and methods of use” (Anacor Pharmaceuticals, Inc., priority 2002, dated 2008)
≈ marks a conversion by molar mass, not a printed value. Values belong to the compound of their own block, whether it stands above or below them.

What was measured:
[1] = tested on: S. epidermidis ATCC 12228; experiment: MIC determination, S. epidermidis ATCC 12228; format: cell-based, Staphylococcus epidermidis; details: for MIC S. epidermidis ATCC 12228: Table 1; for MIC: Staphylococcus epidermidis, ATCC12228, Table 1, read-out: MIC S. epidermidis ATCC 12228
E. faecalis ATCC 29212 = experiment: MIC determination, E. faecalis ATCC 29212; format: cell-based, Enterococcus faecalis; details: for MIC E. faecalis ATCC 29212: Table 1; for MIC: Enterococcus faecalis, ATCC29212, Table 1, read-out: MIC E. faecalis ATCC 29212
E. faecium CT-26 = experiment: MIC determination, E. faecium CT-26; format: cell-based, Enterococcus faecium; details: for MIC E. faecium CT-26: Table 1; for MIC: Enterococcus faecium, CT26, Table 1, read-out: MIC E. faecium CT-26
S. pneumoniae ATCC 6301 = experiment: MIC determination, S. pneumoniae ATCC 6301; format: cell-based, Streptococcus pneumoniae; details: for MIC S. pneumoniae ATCC 6301: Table 1; for MIC: Streptococcus pneumoniae, ATCC6301, Table 1, read-out: MIC S. pneumoniae ATCC 6301
[2] = tested on: M. catarrhalis ATCC 25238; experiment: MIC determination, M. catarrhalis ATCC 25238; format: cell-based; details: for MIC M. catarrhalis ATCC 25238: Table 1; for MIC: Moraxella catarrhalis, ATCC25238, Table 1, read-out: MIC M. catarrhalis ATCC 25238
S. aureus ATCC 29213 = experiment: MIC determination, S. aureus ATCC 29213; format: cell-based, Staphylococcus aureus; details: for MIC S. aureus ATCC 29213: Table 1; for MIC: Staphylococcus aureus, ATCC29213, Table 1, read-out: MIC S. aureus ATCC 29213

Compound: Oc1cccc2cccnc12 [Compound 47, 8-hydroxyquinoline]
- MIC S. epidermidis ATCC 12228 [1]: 1 micrograms per ml
- MIC E. faecalis ATCC 29212 (E. faecalis ATCC 29212): 8 micrograms per ml
- MIC E. faecium CT-26 (E. faecium CT-26): 2 micrograms per ml
- MIC S. pneumoniae ATCC 6301 (S. pneumoniae ATCC 6301): 1 micrograms per ml
- MIC M. catarrhalis ATCC 25238 [2]: 1 micrograms per ml
- MIC S. aureus ATCC 29213 (S. aureus ATCC 29213): 1 micrograms per ml

Compound: Oc1cccc2cccnc12 [Compound 89, 8-hydroxyquinoline]
- MIC S. epidermidis ATCC 12228 [1]: 1 micrograms per ml
- MIC E. faecalis ATCC 29212 (E. faecalis ATCC 29212): 8 micrograms per ml
- MIC E. faecium CT-26 (E. faecium CT-26): 2 micrograms per ml
- MIC S. pneumoniae ATCC 6301 (S. pneumoniae ATCC 6301): 1 micrograms per ml
- MIC M. catarrhalis ATCC 25238 [2]: 2 micrograms per ml
- MIC S. aureus ATCC 29213 (S. aureus ATCC 29213): 2 micrograms per ml

Compound: Oc1cccc2cccnc12 [Compound 78, 8-hydroxyquinoline]
- MIC S. epidermidis ATCC 12228 [1]: 1 micrograms per ml
- MIC E. faecalis ATCC 29212 (E. faecalis ATCC 29212): 8 micrograms per ml
- MIC E. faecium CT-26 (E. faecium CT-26): 2 micrograms per ml
- MIC S. pneumoniae ATCC 6301 (S. pneumoniae ATCC 6301): 1 micrograms per ml
- MIC M. catarrhalis ATCC 25238 [2]: 2 micrograms per ml
- MIC S. aureus ATCC 29213 (S. aureus ATCC 29213): 2 micrograms per ml

Compound: Oc1cccc2cccnc12 [Compound 95, 8-hydroxyquinoline]
- MIC S. epidermidis ATCC 12228 [1]: 1 micrograms per ml
- MIC E. faecalis ATCC 29212 (E. faecalis ATCC 29212): 8 micrograms per ml
- MIC E. faecium CT-26 (E. faecium CT-26): 2 micrograms per ml
- MIC S. pneumoniae ATCC 6301 (S. pneumoniae ATCC 6301): 2 micrograms per ml
- MIC M. catarrhalis ATCC 25238 [2]: 1 micrograms per ml
- MIC S. aureus ATCC 29213 (S. aureus ATCC 29213): 2 micrograms per ml

Compound: Oc1cccc2cccnc12 [Compound 59, 8-hydroxyquinoline]
- MIC S. epidermidis ATCC 12228 [1]: 1 micrograms per ml
- MIC E. faecalis ATCC 29212 (E. faecalis ATCC 29212): 8 micrograms per ml
- MIC E. faecium CT-26 (E. faecium CT-26): 4 micrograms per ml
- MIC S. pneumoniae ATCC 6301 (S. pneumoniae ATCC 6301): 1 micrograms per ml
- MIC M. catarrhalis ATCC 25238 [2]: 2 micrograms per ml
- MIC S. aureus ATCC 29213 (S. aureus ATCC 29213): 2 micrograms per ml

Compound: Oc1cccc2cccnc12 [Compound 92, 8-hydroxyquinoline]
- MIC S. epidermidis ATCC 12228 [1]: 1 micrograms per ml
- MIC E. faecalis ATCC 29212 (E. faecalis ATCC 29212): 8 micrograms per ml
- MIC E. faecium CT-26 (E. faecium CT-26): 4 micrograms per ml
- MIC S. pneumoniae ATCC 6301 (S. pneumoniae ATCC 6301): 2 micrograms per ml
- MIC M. catarrhalis ATCC 25238 [2]: 1 micrograms per ml
- MIC S. aureus ATCC 29213 (S. aureus ATCC 29213): 2 micrograms per ml

Compound: Oc1cccc2cccnc12 [Compound 96, 8-hydroxyquinoline]
- MIC S. epidermidis ATCC 12228 [1]: 1 micrograms per ml
- MIC E. faecalis ATCC 29212 (E. faecalis ATCC 29212): 8 micrograms per ml
- MIC E. faecium CT-26 (E. faecium CT-26): 2 micrograms per ml
- MIC S. pneumoniae ATCC 6301 (S. pneumoniae ATCC 6301): 2 micrograms per ml
- MIC M. catarrhalis ATCC 25238 [2]: 1 micrograms per ml
- MIC S. aureus ATCC 29213 (S. aureus ATCC 29213): 2 micrograms per ml

- MIC [1]: 8 µg/mL (≈ 26.4 µM)
- MIC (E. faecalis ATCC 29212): 64 µg/mL (≈ 211 µM)
- MIC (E. faecium CT-26): 32 µg/mL (≈ 106 µM)
- MIC (S. pneumoniae ATCC 6301): 8 µg/mL (≈ 26.4 µM)
- MIC [2]: 0.12 µg/mL (≈ 0.396 µM)
- MIC (S. aureus ATCC 29213): 0.5 µg/mL (≈ 1.65 µM)
Compound: Oc1c(Br)cc(Br)c2cccnc12 [Compound 24]

Compound: Oc1cccc2cccnc12 [Compound 94, 8-hydroxyquinoline]
- MIC S. epidermidis ATCC 12228 [1]: 1 micrograms per ml
- MIC E. faecalis ATCC 29212 (E. faecalis ATCC 29212): 8 micrograms per ml
- MIC E. faecium CT-26 (E. faecium CT-26): 4 micrograms per ml
- MIC S. pneumoniae ATCC 6301 (S. pneumoniae ATCC 6301): 1 micrograms per ml
- MIC M. catarrhalis ATCC 25238 [2]: 2 micrograms per ml
- MIC S. aureus ATCC 29213 (S. aureus ATCC 29213): 2 micrograms per ml

Compound: Oc1cccc2cccnc12 [Compound 20, 8-hydroxyquinoline]
- MIC S. epidermidis ATCC 12228 [1]: 1 micrograms per ml
- MIC E. faecalis ATCC 29212 (E. faecalis ATCC 29212): 8 micrograms per ml
- MIC E. faecium CT-26 (E. faecium CT-26): 4 micrograms per ml
- MIC S. pneumoniae ATCC 6301 (S. pneumoniae ATCC 6301): 2 micrograms per ml
- MIC M. catarrhalis ATCC 25238 [2]: 2 micrograms per ml
- MIC S. aureus ATCC 29213 (S. aureus ATCC 29213): 0.25 micrograms per ml

Compound: Oc1cccc2cccnc12 [Compound 63, 8-hydroxyquinoline]
- MIC S. epidermidis ATCC 12228 [1]: 1 micrograms per ml
- MIC E. faecalis ATCC 29212 (E. faecalis ATCC 29212): 8 micrograms per ml
- MIC E. faecium CT-26 (E. faecium CT-26): 4 micrograms per ml
- MIC S. pneumoniae ATCC 6301 (S. pneumoniae ATCC 6301): 2 micrograms per ml
- MIC M. catarrhalis ATCC 25238 [2]: 1 micrograms per ml
- MIC S. aureus ATCC 29213 (S. aureus ATCC 29213): 2 micrograms per ml

Compound: Bis(ethynyl)borinic acid 8-Hydroxyquinoline [Compound 44]
- MIC S. epidermidis ATCC 12228 [1]: 1 micrograms per ml
- MIC E. faecalis ATCC 29212 (E. faecalis ATCC 29212): 16 micrograms per ml
- MIC E. faecium CT-26 (E. faecium CT-26): 2 micrograms per ml
- MIC S. pneumoniae ATCC 6301 (S. pneumoniae ATCC 6301): 1 micrograms per ml
- MIC M. catarrhalis ATCC 25238 [2]: 0.25 micrograms per ml
- MIC S. aureus ATCC 29213 (S. aureus ATCC 29213): 1 micrograms per ml

Compound: Oc1cccc2cccnc12 [Compound 61, 8-hydroxyquinoline]
- MIC S. epidermidis ATCC 12228 [1]: 1 micrograms per ml
- MIC E. faecalis ATCC 29212 (E. faecalis ATCC 29212): 16 micrograms per ml
- MIC E. faecium CT-26 (E. faecium CT-26): 2 micrograms per ml
- MIC S. pneumoniae ATCC 6301 (S. pneumoniae ATCC 6301): 1 micrograms per ml
- MIC M. catarrhalis ATCC 25238 [2]: 2 micrograms per ml
- MIC S. aureus ATCC 29213 (S. aureus ATCC 29213): 2 micrograms per ml

Compound: Oc1cccc2cccnc12 [Compound 48, 8-hydroxyquinoline]
- MIC S. epidermidis ATCC 12228 [1]: 1 micrograms per ml
- MIC E. faecalis ATCC 29212 (E. faecalis ATCC 29212): 8 micrograms per ml
- MIC E. faecium CT-26 (E. faecium CT-26): 2 micrograms per ml
- MIC S. pneumoniae ATCC 6301 (S. pneumoniae ATCC 6301): 1 micrograms per ml
- MIC M. catarrhalis ATCC 25238 [2]: 2 micrograms per ml
- MIC S. aureus ATCC 29213 (S. aureus ATCC 29213): 1 micrograms per ml

Compound: Clc1cccc(B(Oc2cccc3cccnc23)c2cccs2)c1 [Compound 36, (3-Chlorophenyl)(2-thienyl)borinic acid 8-hydroxyquinoline ester]
- MIC S. epidermidis ATCC 12228 [1]: 1 micrograms per ml
- MIC E. faecalis ATCC 29212 (E. faecalis ATCC 29212): 8 micrograms per ml
- MIC E. faecium CT-26 (E. faecium CT-26): 2 micrograms per ml
- MIC S. pneumoniae ATCC 6301 (S. pneumoniae ATCC 6301): 2 micrograms per ml
- MIC M. catarrhalis ATCC 25238 [2]: 4 micrograms per ml
- MIC S. aureus ATCC 29213 (S. aureus ATCC 29213): 1 micrograms per ml

Compound: N#Cc1ccc(OB(c2cccc(Cl)c2)c2cccc(Cl)c2)c2ncccc12 [Compound 19, Bis(3-Chlorophenyl)borinic acid 5-cyano-8-hydroxyquinoline ester]
- MIC S. epidermidis ATCC 12228 [1]: 2 micrograms per ml
- MIC E. faecalis ATCC 29212 (E. faecalis ATCC 29212): 16 micrograms per ml
- MIC E. faecium CT-26 (E. faecium CT-26): 4 micrograms per ml
- MIC S. pneumoniae ATCC 6301 (S. pneumoniae ATCC 6301): 4 micrograms per ml
- MIC M. catarrhalis ATCC 25238 [2]: 0.5 micrograms per ml
- MIC S. aureus ATCC 29213 (S. aureus ATCC 29213): 0.25 micrograms per ml

- MIC [1]: 4 µg/mL (≈ 23.5 µM)
- MIC (E. faecalis ATCC 29212): 16 µg/mL (≈ 94 µM)
- MIC (E. faecium CT-26): 8 µg/mL (≈ 47 µM)
- MIC (S. pneumoniae ATCC 6301): 2 µg/mL (≈ 11.8 µM)
- MIC [2]: 0.25 µg/mL (≈ 1.47 µM)
- MIC (S. aureus ATCC 29213): 0.5 µg/mL (≈ 2.94 µM)
Compound: N#Cc1ccc(O)c2ncccc12 [Compound 21, 5-cyano-8-hydroxyquinoline]

Compound: Oc1cccc2cccnc12 [Compound 82, 8-hydroxyquinoline]
- MIC S. epidermidis ATCC 12228 [1]: 2 micrograms per ml
- MIC E. faecalis ATCC 29212 (E. faecalis ATCC 29212): 8 micrograms per ml
- MIC E. faecium CT-26 (E. faecium CT-26): 2 micrograms per ml
- MIC S. pneumoniae ATCC 6301 (S. pneumoniae ATCC 6301): 2 micrograms per ml
- MIC M. catarrhalis ATCC 25238 [2]: 4 micrograms per ml
- MIC S. aureus ATCC 29213 (S. aureus ATCC 29213): 2 micrograms per ml

Compound: Oc1cccc2cccnc12 [Compound 100, 8-hydroxyquinoline]
- MIC S. epidermidis ATCC 12228 [1]: 1 micrograms per ml
- MIC E. faecalis ATCC 29212 (E. faecalis ATCC 29212): 4 micrograms per ml
- MIC E. faecium CT-26 (E. faecium CT-26): 2 micrograms per ml
- MIC S. pneumoniae ATCC 6301 (S. pneumoniae ATCC 6301): 2 micrograms per ml
- MIC M. catarrhalis ATCC 25238 [2]: 1 micrograms per ml
- MIC S. aureus ATCC 29213 (S. aureus ATCC 29213): 2 micrograms per ml

Compound: Oc1cccc2cccnc12 [Compound 93, 8-hydroxyquinoline]
- MIC S. epidermidis ATCC 12228 [1]: 1 micrograms per ml
- MIC E. faecalis ATCC 29212 (E. faecalis ATCC 29212): 8 micrograms per ml
- MIC E. faecium CT-26 (E. faecium CT-26): 4 micrograms per ml
- MIC S. pneumoniae ATCC 6301 (S. pneumoniae ATCC 6301): 1 micrograms per ml
- MIC M. catarrhalis ATCC 25238 [2]: 1 micrograms per ml
- MIC S. aureus ATCC 29213 (S. aureus ATCC 29213): 2 micrograms per ml
